In ChEMBL document CHEMBL1149378, “Naphthofuroquinone derivatives: inhibition of receptor tyrosine kinases” (Bioorg Med Chem Lett, 2006):
Activity calls are given as the source filed them. The rule behind the calls is not given here.

How the values were obtained:
[1] = target: T1, Vascular endothelial growth factor receptor 2 (Homo sapiens, UniProt P35968); test: Inhibitory activity against VEGFR2 kinase at 20 uM
[2] = target: T2, Fibroblast growth factor receptor 1 (Homo sapiens, UniProt P11362); test: Inhibitory activity against FGFR1 kinase at 20 uM
[3] = target: T3, Platelet-derived growth factor receptor beta (Homo sapiens, UniProt P09619); test: Inhibitory activity against PDGFRbeta kinase at 20 uM
T3 sequence (P09619 whole entry): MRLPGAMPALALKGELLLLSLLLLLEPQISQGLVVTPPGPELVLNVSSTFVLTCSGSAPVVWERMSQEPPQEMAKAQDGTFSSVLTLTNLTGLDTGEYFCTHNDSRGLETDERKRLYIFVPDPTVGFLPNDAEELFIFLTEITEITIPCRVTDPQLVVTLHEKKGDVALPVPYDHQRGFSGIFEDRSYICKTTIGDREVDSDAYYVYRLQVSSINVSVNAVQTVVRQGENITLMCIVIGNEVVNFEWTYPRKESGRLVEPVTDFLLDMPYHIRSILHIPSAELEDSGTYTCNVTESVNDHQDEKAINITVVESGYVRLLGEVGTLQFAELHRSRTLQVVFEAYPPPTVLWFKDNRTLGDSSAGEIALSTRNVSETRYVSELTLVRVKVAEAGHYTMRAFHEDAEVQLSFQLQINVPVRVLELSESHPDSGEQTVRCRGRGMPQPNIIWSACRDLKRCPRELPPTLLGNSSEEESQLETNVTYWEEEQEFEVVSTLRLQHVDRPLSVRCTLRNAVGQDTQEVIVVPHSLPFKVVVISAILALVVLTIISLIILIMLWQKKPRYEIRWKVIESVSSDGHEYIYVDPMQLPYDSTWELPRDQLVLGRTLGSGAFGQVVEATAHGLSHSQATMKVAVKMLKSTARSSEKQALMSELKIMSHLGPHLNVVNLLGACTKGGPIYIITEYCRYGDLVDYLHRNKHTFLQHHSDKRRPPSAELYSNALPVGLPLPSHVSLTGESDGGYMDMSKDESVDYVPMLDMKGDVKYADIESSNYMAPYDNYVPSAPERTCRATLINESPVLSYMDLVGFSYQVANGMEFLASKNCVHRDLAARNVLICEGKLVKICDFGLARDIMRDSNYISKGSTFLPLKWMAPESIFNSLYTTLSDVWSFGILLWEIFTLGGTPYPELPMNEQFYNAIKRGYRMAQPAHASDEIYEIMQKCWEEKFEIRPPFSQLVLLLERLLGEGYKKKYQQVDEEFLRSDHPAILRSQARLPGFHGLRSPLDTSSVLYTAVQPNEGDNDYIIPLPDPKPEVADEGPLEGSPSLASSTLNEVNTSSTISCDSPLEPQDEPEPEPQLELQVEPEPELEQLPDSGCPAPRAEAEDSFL

[4] = target: T4, Epidermal growth factor receptor (Homo sapiens, UniProt P00533); settings: 20 uM
T4 sequence (P00533 whole entry): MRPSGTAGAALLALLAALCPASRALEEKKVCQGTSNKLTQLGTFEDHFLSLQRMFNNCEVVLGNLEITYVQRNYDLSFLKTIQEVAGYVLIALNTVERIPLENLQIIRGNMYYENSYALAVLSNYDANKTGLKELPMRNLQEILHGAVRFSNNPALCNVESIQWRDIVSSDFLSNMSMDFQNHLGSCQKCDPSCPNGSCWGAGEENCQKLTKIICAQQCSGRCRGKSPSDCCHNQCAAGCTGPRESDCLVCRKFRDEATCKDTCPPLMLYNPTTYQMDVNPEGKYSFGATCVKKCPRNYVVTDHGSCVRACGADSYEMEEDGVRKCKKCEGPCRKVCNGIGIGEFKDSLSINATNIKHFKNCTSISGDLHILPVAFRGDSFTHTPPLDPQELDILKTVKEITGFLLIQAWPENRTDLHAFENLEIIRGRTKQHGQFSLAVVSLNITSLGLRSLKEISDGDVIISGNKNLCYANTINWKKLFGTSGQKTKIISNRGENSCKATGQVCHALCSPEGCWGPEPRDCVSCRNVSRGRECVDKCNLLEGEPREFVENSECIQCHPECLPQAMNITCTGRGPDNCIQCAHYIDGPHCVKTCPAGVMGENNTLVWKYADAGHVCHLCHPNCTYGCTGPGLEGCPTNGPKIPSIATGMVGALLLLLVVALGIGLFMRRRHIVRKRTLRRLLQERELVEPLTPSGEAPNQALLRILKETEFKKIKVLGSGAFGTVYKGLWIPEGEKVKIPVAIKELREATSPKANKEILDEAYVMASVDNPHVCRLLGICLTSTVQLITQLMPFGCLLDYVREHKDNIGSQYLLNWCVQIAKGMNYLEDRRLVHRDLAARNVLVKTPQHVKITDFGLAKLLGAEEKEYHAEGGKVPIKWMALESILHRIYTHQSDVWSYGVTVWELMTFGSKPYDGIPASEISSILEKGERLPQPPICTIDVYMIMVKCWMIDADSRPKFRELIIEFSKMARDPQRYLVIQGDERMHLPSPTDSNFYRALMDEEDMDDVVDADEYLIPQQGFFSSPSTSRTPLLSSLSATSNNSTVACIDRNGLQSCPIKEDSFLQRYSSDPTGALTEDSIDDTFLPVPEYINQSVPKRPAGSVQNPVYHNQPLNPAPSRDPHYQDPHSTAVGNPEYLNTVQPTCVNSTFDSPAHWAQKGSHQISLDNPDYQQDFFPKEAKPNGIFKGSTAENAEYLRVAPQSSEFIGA
Description: Inhibitory activity against EGFR kinase at 20 uM

[5] = target: T4, Epidermal growth factor receptor; test: Inhibitory activity against EGFR kinase
[6] = target: T2, Fibroblast growth factor receptor 1; test: Inhibitory activity against FGFR1 kinase
Target sequence in this assay (P11362 whole entry): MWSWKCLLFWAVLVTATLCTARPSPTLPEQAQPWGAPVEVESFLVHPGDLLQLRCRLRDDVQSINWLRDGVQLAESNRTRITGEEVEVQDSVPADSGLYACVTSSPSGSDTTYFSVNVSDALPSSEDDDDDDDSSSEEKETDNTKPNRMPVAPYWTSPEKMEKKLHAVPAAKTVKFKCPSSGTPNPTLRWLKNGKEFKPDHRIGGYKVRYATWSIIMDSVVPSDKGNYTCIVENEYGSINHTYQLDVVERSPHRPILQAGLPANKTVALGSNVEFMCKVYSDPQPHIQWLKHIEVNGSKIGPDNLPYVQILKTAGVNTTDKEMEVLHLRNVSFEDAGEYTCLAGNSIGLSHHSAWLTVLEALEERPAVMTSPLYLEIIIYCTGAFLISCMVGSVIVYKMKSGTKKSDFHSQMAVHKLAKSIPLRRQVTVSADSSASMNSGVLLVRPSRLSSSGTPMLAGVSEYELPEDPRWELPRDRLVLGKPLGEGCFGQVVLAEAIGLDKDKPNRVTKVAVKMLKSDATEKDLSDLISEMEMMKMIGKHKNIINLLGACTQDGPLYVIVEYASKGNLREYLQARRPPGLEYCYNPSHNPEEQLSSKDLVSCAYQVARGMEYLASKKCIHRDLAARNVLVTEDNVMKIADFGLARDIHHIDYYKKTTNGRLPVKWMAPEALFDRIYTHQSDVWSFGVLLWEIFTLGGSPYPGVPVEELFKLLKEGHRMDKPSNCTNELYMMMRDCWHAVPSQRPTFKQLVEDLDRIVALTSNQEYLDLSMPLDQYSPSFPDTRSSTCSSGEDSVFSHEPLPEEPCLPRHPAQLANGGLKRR

[7] = target: T3, Platelet-derived growth factor receptor beta; test: Inhibitory activity against PDGFRbeta kinase
HUVEC [8] = test: Inhibition of HUVEC tube formation at 2 uM; type: functional, cell-based; settings: Homo sapiens
HUVEC [9] = test: Inhibition of HUVEC tube formation at 10 uM; type: functional, cell-based; settings: Homo sapiens
A-431 = test: Cytotoxicity against epidermoid carcinoma A431 cell line; type: functional, cell-based; settings: Homo sapiens
[10] = target: T1, Vascular endothelial growth factor receptor 2; test: Inhibitory activity against VEGFR2 kinase
[11] = target: T4, Epidermal growth factor receptor; test: Intracellular inhibition of autophosphorylation of EGFR in A431 cells; type: functional, cell-based; settings: A-431
[12] = target: T4, Epidermal growth factor receptor; test: Inhibition of ERK1 phosphorylation in EGF-treated A431 cells at 1 uM; type: functional, cell-based; settings: A-431
[13] = target: T4, Epidermal growth factor receptor; test: Inhibition of ERK2 phosphorylation in EGF-treated A431 cells at 1 uM; type: functional, cell-based; settings: A-431
[14] = target: T4, Epidermal growth factor receptor; test: Inhibition of MEK1 phosphorylation in EGF-treated A431 cells at 1 uM; type: functional, cell-based; settings: A-431
[15] = target: T4, Epidermal growth factor receptor; test: Inhibition of MEK2 phosphorylation in EGF-treated A431 cells at 1 uM; type: functional, cell-based; settings: A-431

T1 sequence (P35968 whole entry): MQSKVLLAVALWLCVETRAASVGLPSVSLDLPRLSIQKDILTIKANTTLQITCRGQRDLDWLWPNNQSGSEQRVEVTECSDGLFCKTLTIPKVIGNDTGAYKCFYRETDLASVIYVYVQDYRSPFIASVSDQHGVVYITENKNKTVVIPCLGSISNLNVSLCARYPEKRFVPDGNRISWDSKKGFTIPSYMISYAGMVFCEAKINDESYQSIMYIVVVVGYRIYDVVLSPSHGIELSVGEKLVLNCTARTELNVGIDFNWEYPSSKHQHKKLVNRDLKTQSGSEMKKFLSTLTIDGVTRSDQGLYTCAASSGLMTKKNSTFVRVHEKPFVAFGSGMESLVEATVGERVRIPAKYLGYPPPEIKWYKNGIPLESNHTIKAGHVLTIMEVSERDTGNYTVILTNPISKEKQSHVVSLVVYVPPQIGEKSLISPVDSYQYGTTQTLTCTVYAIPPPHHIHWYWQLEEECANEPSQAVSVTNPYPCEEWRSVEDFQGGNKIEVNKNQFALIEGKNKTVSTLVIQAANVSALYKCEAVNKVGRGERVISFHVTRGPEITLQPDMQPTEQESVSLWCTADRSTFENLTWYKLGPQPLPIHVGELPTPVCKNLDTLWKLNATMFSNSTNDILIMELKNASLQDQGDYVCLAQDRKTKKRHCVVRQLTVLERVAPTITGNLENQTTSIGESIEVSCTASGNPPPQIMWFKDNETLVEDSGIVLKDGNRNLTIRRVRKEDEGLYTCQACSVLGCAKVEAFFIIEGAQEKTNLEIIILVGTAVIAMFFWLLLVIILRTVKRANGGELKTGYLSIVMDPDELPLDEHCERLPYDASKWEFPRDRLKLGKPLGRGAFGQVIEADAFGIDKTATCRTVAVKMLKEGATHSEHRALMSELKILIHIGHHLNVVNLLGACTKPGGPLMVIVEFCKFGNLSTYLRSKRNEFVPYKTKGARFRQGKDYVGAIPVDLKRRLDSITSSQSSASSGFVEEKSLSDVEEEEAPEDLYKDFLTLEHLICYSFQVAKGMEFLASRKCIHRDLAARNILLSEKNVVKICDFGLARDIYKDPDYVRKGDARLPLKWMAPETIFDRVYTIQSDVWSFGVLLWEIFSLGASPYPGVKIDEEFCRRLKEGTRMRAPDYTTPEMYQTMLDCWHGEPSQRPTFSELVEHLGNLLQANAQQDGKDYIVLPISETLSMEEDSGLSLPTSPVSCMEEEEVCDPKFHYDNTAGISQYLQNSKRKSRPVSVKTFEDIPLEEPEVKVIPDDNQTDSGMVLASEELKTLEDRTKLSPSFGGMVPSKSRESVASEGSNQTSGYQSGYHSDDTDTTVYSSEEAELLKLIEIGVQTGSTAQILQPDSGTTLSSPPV

Row | SMILES | inhibition [1] [%] | inhibition [2] [%] | inhibition [3] [%] | inhibition [4] [%] | IC50 [5] [µM] | IC50 [6] [µM] | IC50 [7] [µM] | Activity (HUVEC [8]) | Activity (HUVEC [9]) | IC50 (A-431) [µM] | IC50 [10] [µM] | Activity [11] | Activity [12] | Activity [13] | Activity [14] | Activity [15]
1 | COC(=O)c1c(OCCN2CCN(Cc3ccc(C(F)(F)F)cc3)CC2)c2ccccc2c2oc3c(c12)C(=O)c1ccccc1C3=O | 43.3 | 48.2 | 52 | 47.5 |  |  |  |  |  |  |  |  |  |  |  | 
2 | CCCOc1c(C(=O)OC)c2c3c(oc2c2ccccc12)C(=O)c1ccccc1C3=O | -2.1 | 2.4 | 5.7 | 38.7 | > 50 | > 50 | > 50 |  |  |  |  |  |  |  |  | 
3 | COC(=O)c1c(OCc2ccncc2)c2ccccc2c2oc3c(c12)C(=O)c1ccccc1C3=O | 3.1 | 2.6 | 2.9 | 19.4 |  |  |  |  |  |  |  |  |  |  |  | 
4 | COC(=O)c1c(O)c2ccccc2c2oc3c(c12)C(=O)c1ccccc1C3=O | 16 | 12.6 | 2.8 | 21.4 |  |  |  |  |  |  |  |  |  |  |  | 
5 | COC(=O)c1c(OCCN(C)C)c2ccccc2c2oc3c(c12)C(=O)c1ccccc1C3=O | 57.1 | 51 | 56.5 | 71 | 31 | 23.6 | 7.6 | Active | Active | 1.1 | 13 |  |  |  |  | 
6 | COC(=O)c1c(OCCN2CCOCC2)c2ccccc2c2oc3c(c12)C(=O)c1ccccc1C3=O | 40.7 | 41.4 | 46.2 | 67.9 |  |  |  |  |  |  |  |  |  |  |  | 
7 | COC(=O)c1c(OCCN2CCCCC2)c2ccccc2c2oc3c(c12)C(=O)c1ccccc1C3=O | 81.7 | 79.1 | 89.8 | 84.3 | 2.8 | 7.1 | 5.5 |  | Active | 4.3 | 4.6 | Active | Active | Active | Active | Active
8 | COC(=O)c1c(OCc2ccc(C(=O)OC(C)(C)C)cc2)c2ccccc2c2oc3c(c12)C(=O)c1ccccc1C3=O | 52.2 | 50.8 | 62.2 | 57.1 |  |  |  |  |  |  |  |  |  |  |  | 
9 | COC(=O)c1c(OCCCN2CCN(c3ccccc3Cl)CC2)c2ccccc2c2oc3c(c12)C(=O)c1ccccc1C3=O | 62.1 | 55.5 | 68.9 | 68.3 |  |  |  |  |  |  |  |  |  |  |  | 
10 | COC(=O)c1c(OCCN2CCCC2)c2ccccc2c2oc3c(c12)C(=O)c1ccccc1C3=O | 86.5 | 65.2 | 95.5 | 77.1 | 9 | 23.8 | 8.7 |  |  | 1.1 | 5.5 |  |  |  |  | 
11 | COC(=O)c1c(OC)c2ccccc2c2oc3c(c12)C(=O)c1ccccc1C3=O | -0.8 | 10.5 | 12.7 | 16.7 | 12.6 | > 50 | > 50 |  |  |  |  |  |  |  |  | 
12 | N#CC(C#N)=C(N)/C(C#N)=C/c1cc(O)c(O)c(O)c1 [TYRPHOSTIN 51] | 88 | 93 | 82 | 90 | 4.1 | 4.9 | 2.8 |  |  |  | 4.3 |  |  |  |  | 
13 | COC(=O)c1c(OCc2ccc(OC)cc2)c2ccccc2c2oc3c(c12)C(=O)c1ccccc1C3=O | 48.3 | 46 | 69.4 | 72.6 |  |  |  |  |  |  |  |  |  |  |  | 
14 | COC(=O)c1c(OCc2ccc(C(F)(F)F)cc2)c2ccccc2c2oc3c(c12)C(=O)c1ccccc1C3=O | 40.9 | 44.5 | 51.5 | 33.6 |  |  |  |  |  |  |  |  |  |  |  | 
15 | COC(=O)c1c(OCCCN(C)C)c2ccccc2c2oc3c(c12)C(=O)c1ccccc1C3=O | 57.5 | 51.2 | 57.2 | 72.4 | 13.6 | 38.4 | 10.2 |  |  |  | 15.5 |  |  |  |  | 
16 | COC(=O)c1c(OC(C)=O)c2ccccc2c2oc3c(c12)C(=O)c1ccccc1C3=O |  | -8.1 | -0.3 | 21.6 |  |  |  |  |  |  |  |  |  |  |  | 
17 | CCN(CC)CCOc1c(C(=O)OC)c2c3c(oc2c2ccccc12)C(=O)c1ccccc1C3=O | 60.4 | 61.1 | 64.1 | 82.1 | 5.1 | 8.8 | 15.9 |  | Active | 1.7 | 12.6 | Active |  |  |  | 
